Legend:
corn (Ze) = experiment: Test Example 11: crop plant selectivity by upland field foliage treatment (corn), phytotoxicity; conditions: corn; foliage treatment; dose 1.6 g ai/10a; evaluated on 14th day after treatment; index per Table 47
Experimental: (§1) (Test on Crop Plant Selectivity by Upland Field Foliage Treatment)
(§2) In a plastic pot (surface area: 600 cm^2) filled with sand, corn (Ze), pale smartweed (Po), slender amaranth (Am), common lambsquarters (Ch) and China jute (Ab) were sown and cultured in a green house for 2 weeks. […] The plants were then cultured in a green house, and the evaluation of the herbicidal effects and phytotoxicity was conducted on the 14th day after the treatment in accordance with the standards as identified in Table 47.

slender amaranth (Am) [1] = experiment: Test Example 11: crop plant selectivity by upland field foliage treatment (corn), herbicidal effects; type: in vivo; design: scale not given here; conditions: slender amaranth; foliage treatment; dose 1.6 g ai/10a; evaluated on 14th day after treatment; index per Table 47
Experimental: as §1, §2

[2] = system: common lambsquarters (Ch); experiment: as above; type: in vivo; design: scale not given here; conditions: common lambsquarters; foliage treatment; dose 1.6 g ai/10a; evaluated on 14th day after treatment; index per Table 47
Experimental: as §1, §2

pale smartweed (Po) [3] = experiment: as above; type: in vivo; design: scale not given here; conditions: pale smartweed; foliage treatment; dose 1.6 g ai/10a; evaluated on 14th day after treatment; index per Table 47
Experimental: as §1, §2

China jute (Ab) [4] = experiment: as above; type: in vivo; design: scale not given here; conditions: China jute; foliage treatment; dose 1.6 g ai/10a; evaluated on 14th day after treatment; index per Table 47
Experimental: as §1, §2

wheat (Tr) = experiment: Test Example 9: crop plant selectivity by upland field foliage treatment (wheat), phytotoxicity; conditions: dose 1.6 g ai/10a, 14th day after treatment;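 note: grade of crop injury; 5 = at least 90%; 4 = 70 to 90%; 3 = 50 to 70%; 2 = 30 to 50%; 1 = 10 to 30%; 0 = under 10%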
Method in brief: (§3)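 Seeds of wheat, pale smartweed, slender amaranth, common lambsquarters and China jute are sown in sand and grown 2 weeks under glass. Foliage is then treated, culture resumes in the greenhouse, and damage is graded on the 14th day.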

slender amaranth (Am) [5] = experiment: Test Example 9: crop plant selectivity by upland field foliage treatment (wheat), herbicidal effects; type: in vivo; design: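 grade of growth control; 5 = at least 90%; 4 = 70 to 90%; 3 = 50 to 70%; 2 = 30 to 50%; 1 = 10 to 30%; 0 = under 10%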; conditions: dose 1.6 g ai/10a, 14th day after treatment
Method in brief: as §3

[6] = system: common lambsquarters (Ch); experiment: as above; type: in vivo; design: scale not given here; conditions: dose 1.6 g ai/10a, 14th day after treatment
Method in brief: as §3

pale smartweed (Po) [7] = experiment: as above; type: in vivo; design: scale not given here; conditions: dose 1.6 g ai/10a, 14th day after treatment
Method in brief: as §3

China jute (Ab) [8] = experiment: as above; type: in vivo; design: scale not given here; conditions: dose 1.6 g ai/10a, 14th day after treatment
Method in brief: as §3

## CCC(Br)c1cc2c(-c3ccc(C(F)(F)F)n(C)c3=O)c(F)cc(Cl)c2o1 (stereo not shown) [Compound 4-38]
Corn (Ze)
  Phytotoxicity Ze: 2
Slender amaranth (Am) [1]
  Herbicidal effects Am: 5
[2]
  Herbicidal effects Ch: 5
Pale smartweed (Po) [3]
  Herbicidal effects Po: 5
China jute (Ab) [4]
  Herbicidal effects Ab: 5
Wheat (Tr)
  Phytotoxicity Tr: 2
Slender amaranth (Am) [5]
  Herbicidal effects Am: 5
[6]
  Herbicidal effects Ch: 5
Pale smartweed (Po) [7]
  Herbicidal effects Po: 5
China jute (Ab) [8]
  Herbicidal effects Ab: 5
